Measured values reported in the Kinase Knowledgebase extract (Sharma et al. 2016).

Molecular target: PIK3CG (human) (UniProt P48736)
Experiment: Assessment of PIK3CG Kinase Activity

PIK3CG (human), sequence (P48736 whole entry, looked up): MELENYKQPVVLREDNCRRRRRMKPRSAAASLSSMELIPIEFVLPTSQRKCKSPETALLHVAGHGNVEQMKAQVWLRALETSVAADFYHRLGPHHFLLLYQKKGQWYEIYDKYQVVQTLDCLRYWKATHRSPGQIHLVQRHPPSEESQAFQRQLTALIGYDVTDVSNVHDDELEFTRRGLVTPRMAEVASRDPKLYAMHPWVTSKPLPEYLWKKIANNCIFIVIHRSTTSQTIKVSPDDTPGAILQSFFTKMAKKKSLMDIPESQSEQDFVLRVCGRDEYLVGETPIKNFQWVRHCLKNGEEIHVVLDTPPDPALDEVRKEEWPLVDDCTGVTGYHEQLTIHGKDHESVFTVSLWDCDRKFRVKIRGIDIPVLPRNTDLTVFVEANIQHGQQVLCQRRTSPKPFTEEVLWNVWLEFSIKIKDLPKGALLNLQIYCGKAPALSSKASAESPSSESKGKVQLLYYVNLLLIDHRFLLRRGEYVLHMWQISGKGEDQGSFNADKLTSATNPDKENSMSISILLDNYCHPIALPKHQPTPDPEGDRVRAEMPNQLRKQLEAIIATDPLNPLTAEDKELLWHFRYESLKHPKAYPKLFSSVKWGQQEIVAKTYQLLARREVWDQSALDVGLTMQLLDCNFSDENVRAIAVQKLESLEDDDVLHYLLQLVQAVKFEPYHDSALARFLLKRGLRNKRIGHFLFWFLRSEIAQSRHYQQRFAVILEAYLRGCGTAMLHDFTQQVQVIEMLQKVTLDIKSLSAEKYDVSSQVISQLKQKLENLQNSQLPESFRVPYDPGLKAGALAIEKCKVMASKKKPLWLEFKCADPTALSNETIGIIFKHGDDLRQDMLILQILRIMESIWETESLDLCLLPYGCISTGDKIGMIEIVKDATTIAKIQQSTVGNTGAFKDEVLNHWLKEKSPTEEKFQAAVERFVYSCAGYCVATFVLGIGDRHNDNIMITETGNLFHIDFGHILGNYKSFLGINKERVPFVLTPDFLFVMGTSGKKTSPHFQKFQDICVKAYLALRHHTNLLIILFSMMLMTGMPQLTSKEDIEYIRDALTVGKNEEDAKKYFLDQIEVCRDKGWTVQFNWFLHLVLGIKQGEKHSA

SMILES | IC50 [nM]
CC(=O)Nc1nc2c(s1)-c1nc(-c3cc(Cl)cc(C#CCN(C)C)c3)ncc1CC2 | < 600
CNC(=O)Nc1nc2c(s1)-c1nc(-c3cc(C#CC4CCN(C5CCCC5)CC4)ccc3Cl)ncc1CC2 | < 600
CC(=O)Nc1nc2c(s1)-c1nc(-c3cc(C#CCNCC(C)(C)C)ccc3Cl)ncc1CC2 | < 600
CC(=O)Nc1nc2c(s1)-c1nc(-c3cc(C#CCNC(=O)CCC(C)C)ccc3Cl)ncc1CC2 | < 600
CC(=O)Nc1nc2c(s1)-c1nc(-c3cc(C#CC4CCN(C(=O)NCC5CCCCC5)CC4)ccc3Cl)ncc1CC2 | < 600
CC(=O)Nc1nc2c(s1)-c1nc(-c3cc(C#CCCCN(C)C)ccc3Cl)ncc1CC2 | < 600
CNC(=O)N(C)CCC#Cc1ccc(Cl)c(-c2ncc3c(n2)-c2sc(NC(C)=O)nc2CC3)c1 | < 600
CC(=O)Nc1nc2c(s1)-c1nc(-c3cc(C#CC4(O)CCC(C)(C)CC4)ccc3Cl)ncc1CC2 | < 600
CNC(=O)Nc1nc2c(s1)-c1nc(-c3cc(C#CC4(O)CCN(C5CCCC5)CC4)ccc3Cl)ncc1CC2 | < 600
CC(=O)Nc1nc2c(s1)-c1nc(-c3cc(C#CC4CCN(S(=O)(=O)C5CC5)CC4)ccc3Cl)ncc1CC2 | < 600
CC(=O)Nc1nc2c(s1)-c1nc(-c3cccc(C#CC4CCN(C(C)C)CC4)c3)ncc1CC2 | < 600
CC(=O)Nc1nc2c(s1)-c1nc(-c3cc(C#CCNC(=O)CC4CCN(C)CC4)ccc3Cl)ncc1CC2 | < 600
CC(=O)Nc1nc2c(s1)-c1nc(-c3cc(C#CCCO)ccc3Cl)ncc1CC2 | < 600
CC(=O)Nc1nc2c(s1)-c1nc(-c3cc(C#CCNS(=O)(=O)N4CCOCC4)ccc3Cl)ncc1CC2 | < 600
CC(=O)Nc1nc2c(s1)-c1nc(-c3cc(C#CC4CCN(C(=O)CC(C)C)CC4)ccc3Cl)ncc1CC2 | < 600
CC(=O)Nc1nc2c(s1)-c1nc(-c3cc(C#CCNC(=O)CN(C)C)ccc3Cl)ncc1CC2 | < 600
CC(=O)Nc1nc2c(s1)-c1nc(-c3cc(C#CC4CCN(C5CCCC5)CC4)ccc3Cl)ncc1CC2 | < 600
CC(=O)Nc1nc2c(s1)-c1nc(-c3cccc(C#CC4(O)CCN(C(C)C)CC4)c3)ncc1CC2 | < 600
CC(=O)Nc1nc2c(s1)-c1nc(-c3cc(C#CCCN4CCCC4)ccc3Cl)ncc1CC2 | < 600
CC(=O)Nc1nc2c(s1)-c1nc(-c3cc(C#CCNS(=O)(=O)N(C)C)ccc3Cl)ncc1CC2 | < 600
CC(=O)Nc1nc2c(s1)-c1nc(-c3cc(C#CCNCC(C)C)ccc3Cl)ncc1CC2 | < 600
CC(=O)Nc1nc2c(s1)-c1nc(-c3cc(C#CC4(NC(C)=O)CCCCC4)ccc3Cl)ncc1CC2 | < 600

SMILES | IC50 [nM]
CC(=O)Nc1nc2c(s1)-c1nc(-c3cccc(C#CCNC(=O)C4CCN(C)CC4)c3)ncc1CC2 | < 600
CC(=O)Nc1nc2c(s1)-c1nc(-c3cc(C#CCNS(C)(=O)=O)ccc3Cl)ncc1CC2 | < 600
CC(=O)Nc1nc2c(s1)-c1nc(-c3cc(Cl)cc(C#CC4CCN(C5CCCC5)CC4)c3)ncc1CC2 | < 600
CC(=O)Nc1nc2c(s1)-c1nc(-c3cc(C#CCNC(C)C)ccc3Cl)ncc1CC2 | < 600
CC(=O)Nc1nc2c(s1)-c1nc(-c3cc(C#CC(C)(C)N)ccc3Cl)ncc1CC2 | < 600
CC(=O)Nc1nc2c(s1)-c1nc(-c3cc(C#CCN4CCN(C)CC4)ccc3Cl)ncc1CC2 | < 600
CC(=O)Nc1nc2c(s1)-c1nc(-c3cc(C#CC4(O)CCN(C(C)C)CC4)ccc3F)ncc1CC2 | < 600
CC(=O)Nc1nc2c(s1)-c1nc(-c3cc(C#CCN4CCN(C5CCCC5)CC4)ccc3Cl)ncc1CC2 | < 600
CC(=O)Nc1nc2c(s1)-c1nc(-c3cc(C#CCNCc4ccccn4)ccc3Cl)ncc1CC2 | < 600
CC(=O)Nc1nc2c(s1)-c1nc(-c3cc(C#CCNS(=O)(=O)c4ccccc4)ccc3Cl)ncc1CC2 | < 600
CC(=O)Nc1nc2c(s1)-c1nc(-c3cc(C#CC4(O)CCN(C5CCCC5)CC4)ccc3Cl)ncc1CC2 | < 600
CC(=O)Nc1nc2c(s1)-c1nc(-c3cc(C#CCN(C)S(=O)(=O)N4CCCC4)ccc3Cl)ncc1CC2 | < 600
CC(=O)Nc1nc2c(s1)-c1nc(-c3cc(C#CCCCN(C)C(C)C)ccc3Cl)ncc1CC2 | < 600
CC(=O)Nc1nc2c(s1)-c1nc(-c3cc(C#CCCCN4CCC(N(C)C)CC4)ccc3Cl)ncc1CC2 | < 600
CNC(=O)NCC#Cc1ccc(Cl)c(-c2ncc3c(n2)-c2sc(NC(C)=O)nc2CC3)c1 | < 600
CC(=O)Nc1nc2c(s1)-c1nc(-c3cc(C#CCN(C)S(=O)(=O)C4CC4)ccc3Cl)ncc1CC2 | < 600
CC(=O)Nc1nc2c(s1)-c1nc(-c3cc(C#CCN4CCC(N(C)C)CC4)ccc3Cl)ncc1CC2 | < 600
CC(=O)Nc1nc2c(s1)-c1nc(-c3cc(C#CCN(C)C(C)=O)ccc3Cl)ncc1CC2 | < 600
CNC(=O)Nc1nc2c(s1)-c1nc(-c3cc(C#CC4(OC)CCN(C)CC4)ccc3Cl)ncc1CC2 | < 600
CC(=O)Nc1nc2c(s1)-c1nc(-c3cc(C#CC4(N(C)C)CCCC4)ccc3Cl)ncc1CC2 | < 600
CC(=O)Nc1nc2c(s1)-c1nc(-c3cc(C#CCN4CCN(C(C)=O)CC4)ccc3Cl)ncc1CC2 | < 600
CCS(=O)(=O)N(C)CC#Cc1ccc(Cl)c(-c2ncc3c(n2)-c2sc(NC(C)=O)nc2CC3)c1 | < 600

SMILES | IC50 [nM]
CC(=O)Nc1nc2c(s1)-c1nc(-c3cc(C#CCNC(=O)CCC4CCCC4)ccc3Cl)ncc1CC2 | < 600
CC(=O)Nc1nc2c(s1)-c1nc(-c3cc(C#CCNC(=O)C(C)C)ccc3Cl)ncc1CC2 | < 600
CC(=O)Nc1nc2c(s1)-c1nc(-c3cccc(C#CC4(O)CCN(C)CC4)c3)ncc1CC2 | < 600
CC(=O)Nc1nc2c(s1)-c1nc(-c3cc(C#CCNC(=O)NCC4CCCCC4)ccc3Cl)ncc1CC2 | < 600
CC(=O)Nc1nc2c(s1)-c1nc(-c3cc(C#CCCN4CCN(C)CC4)ccc3Cl)ncc1CC2 | < 600
CC(=O)Nc1nc2c(s1)-c1nc(-c3cc(C#CCNC(=O)NC(C)C)ccc3Cl)ncc1CC2 | < 600
COC1(C#Cc2ccc(F)c(-c3ncc4c(n3)-c3sc(NC(C)=O)nc3CC4)c2)CCCCC1 | < 600
CC(=O)Nc1nc2c(s1)-c1nc(-c3cccc(C#CCNS(=O)(=O)C4CC4)c3)ncc1CC2 | < 600
CC(=O)Nc1nc2c(s1)-c1nc(-c3cc(C#CCCCNCC(C)C)ccc3Cl)ncc1CC2 | < 600
CC(=O)Nc1nc2c(s1)-c1nc(-c3cc(C#CCN(C)S(=O)(=O)C(C)C)ccc3Cl)ncc1CC2 | < 600
CC(=O)Nc1nc2c(s1)-c1nc(-c3cc(C#CCNCc4ncccc4C)ccc3Cl)ncc1CC2 | < 600
CNC1(C#Cc2ccc(Cl)c(-c3ncc4c(n3)-c3sc(NC(C)=O)nc3CC4)c2)CCCCC1 | < 600
CC(=O)Nc1nc2c(s1)-c1nc(-c3cc(C#CCCCN4CCOCC4)ccc3Cl)ncc1CC2 | < 600
CC(=O)Nc1nc2c(s1)-c1nc(-c3cc(Cl)cc(C#CCNS(C)(=O)=O)c3)ncc1CC2 | < 600
COC1(C#Cc2ccc(Cl)c(-c3ncc4c(n3)-c3sc(NC(C)=O)nc3CC4)c2)CCCCC1 | < 600
CC(=O)Nc1nc2c(s1)-c1nc(-c3cc(C#CCN(C)C(C)C)ccc3Cl)ncc1CC2 | < 600
CC(=O)Nc1nc2c(s1)-c1nc(-c3cccc(C#CC4CCN(C5CCCC5)CC4)c3)ncc1CC2 | < 600
CC(=O)Nc1nc2c(s1)-c1nc(-c3cc(C#CC4(O)CCCCC4)ccc3Cl)ncc1CC2 | < 600
CCS(=O)(=O)NCC#Cc1ccc(Cl)c(-c2ncc3c(n2)-c2sc(NC(C)=O)nc2CC3)c1 | < 600
CC(=O)Nc1nc2c(s1)-c1nc(-c3cc(C#CC4CCN(C(=O)C5CCCC5)CC4)ccc3Cl)ncc1CC2 | < 600
CC(=O)Nc1nc2c(s1)-c1nc(-c3cc(C#CCNC(=O)C4CCCCC4)ccc3Cl)ncc1CC2 | < 600
CC(=O)Nc1nc2c(s1)-c1nc(-c3cc(C#CCCN4CCC(N(C)C)CC4)ccc3Cl)ncc1CC2 | < 600

SMILES | IC50 [nM]
CC(=O)Nc1nc2c(s1)-c1nc(-c3cc(C#C[C@H]4CCCN4)ccc3Cl)ncc1CC2 | < 600
CC(=O)Nc1nc2c(s1)-c1nc(-c3cc(C#CCCN4CCCCC4)ccc3Cl)ncc1CC2 | < 600
CC(=O)Nc1nc2c(s1)-c1nc(-c3cc(C#CC4CCN(C(=O)NC5CCCC5)CC4)ccc3Cl)ncc1CC2 | < 600
CC(=O)Nc1nc2c(s1)-c1nc(-c3cc(C#CCCN4CCOCC4)ccc3Cl)ncc1CC2 | < 600
CC(=O)Nc1nc2c(s1)-c1nc(-c3cc(C#CCNC(=O)N4CCCC4)ccc3Cl)ncc1CC2 | < 600
CCN(CC)S(=O)(=O)NCC#Cc1ccc(Cl)c(-c2ncc3c(n2)-c2sc(NC(C)=O)nc2CC3)c1 | < 600
CC(=O)Nc1nc2c(s1)-c1nc(-c3cc(C#CC4CCN(S(=O)(=O)N(C)C)CC4)ccc3Cl)ncc1CC2 | < 600
CC(=O)Nc1nc2c(s1)-c1nc(-c3cc(C#CCN(C)S(C)(=O)=O)ccc3Cl)ncc1CC2 | < 600
CC(=O)Nc1nc2c(s1)-c1nc(-c3cc(C#CCNC(=O)C4CCCC4)ccc3Cl)ncc1CC2 | < 600
CC(=O)Nc1nc2c(s1)-c1nc(-c3cc(C#Cc4cccnc4)ccc3Cl)ncc1CC2 | < 600
CC(=O)Nc1nc2c(s1)-c1nc(-c3cc(C#CCN4CCCC4)ccc3Cl)ncc1CC2 | < 600
CC(=O)Nc1nc2c(s1)-c1nc(-c3cc(C#CC4CCN(C5CCCC5)CC4)ccc3F)ncc1CC2 | < 600
CC(=O)Nc1nc2c(s1)-c1nc(-c3cc(C#CC4(N)CCCCC4)ccc3Cl)ncc1CC2 | < 600
CC(=O)Nc1nc2c(s1)-c1nc(-c3cc(C#CCNS(=O)(=O)c4ccoc4)ccc3Cl)ncc1CC2 | < 600
CC(=O)NCC#Cc1cccc(-c2ncc3c(n2)-c2sc(NC(C)=O)nc2CC3)c1 | < 600
CC(=O)Nc1nc2c(s1)-c1nc(-c3cc(C#CC4CCN(C(=O)CC5CCCC5)CC4)ccc3Cl)ncc1CC2 | < 600
COC1(C#Cc2ccc(Cl)c(-c3ncc4c(n3)-c3sc(NC(C)=O)nc3CC4)c2)CCN(C)CC1 | < 600
CC(=O)Nc1nc2c(s1)-c1nc(-c3cc(C#CCOC4CCN(C(C)=O)CC4)ccc3Cl)ncc1CC2 | < 600
CC(=O)Nc1nc2c(s1)-c1nc(-c3cc(C#CCNS(N)(=O)=O)ccc3Cl)ncc1CC2 | < 600
CCNC(=O)NCC#Cc1ccc(Cl)c(-c2ncc3c(n2)-c2sc(NC(C)=O)nc2CC3)c1 | < 600
CC(=O)Nc1nc2c(s1)-c1nc(-c3cc(C#CC4CCN(CC5CCCC5)CC4)ccc3Cl)ncc1CC2 | < 600
